Results from US9815866B2, “Peptides that bind to epithelial cell adhesion molecule” (JAPANESE FOUNDATION FOR CANCER RESEARCH, priority 2012, dated 2017).
Bridge positions count the residues as written; N and C are the ends. Ends that are not written are not given here. Peptide text beside a SMILES is read from it. * marks the point of attachment. Biotin = O=C1N[C@H]2[C@H](CS[C@H]2CCCCC(=O)*)N1

Key:
anti-Ep114 antibody = test: Immunoprecipitation with biotinylated Ep114 on streptavidin beads: binding to anti-Ep114 antibody; set-up: species or system rabbit; conditions: peptide on streptavidin-magnetic beads, Western blot
Procedure: 250 μg of streptavidin-magnetic beads (Dynabeads® M-280 streptavidin, VERITAS Corp.) in TBS containing 2% BSA was added to 20 μg of the biotinylated Ep114 peptide and shaken at room temperature for 30 minutes, followed by washing with TBS. Beads reacted without the peptide were used as a control. The anti-Ep114 antibody was added to the beads in TBST and reacted at room temperature for 1 hour. After washing with TBS, the beads were collected. The collected beads were heated at 95° C. for 5 minutes in a SDS sample buffer. After Western-blotting, the anti-Ep114 antibody was detected using HRP-labeled anti-rabbit antibodies.
A schematic diagram of the reaction with the magnetic beads is shown in the left panel of FIG. 5A, and the Western blot results are shown on the right panel thereof.

EpCAM on HT-29 = molecular target: T1, EpCAM on HT-29 (Homo sapiens, UniProt P16422); test: Staining of spheroid-cultured HT-29 cells with FITC-modified peptide; type: cell-based; set-up: endogenous in cells; host or cells: HT-29; conditions: FITC-labeled peptide, 0.4 μM
T1 sequence (P16422 24-314): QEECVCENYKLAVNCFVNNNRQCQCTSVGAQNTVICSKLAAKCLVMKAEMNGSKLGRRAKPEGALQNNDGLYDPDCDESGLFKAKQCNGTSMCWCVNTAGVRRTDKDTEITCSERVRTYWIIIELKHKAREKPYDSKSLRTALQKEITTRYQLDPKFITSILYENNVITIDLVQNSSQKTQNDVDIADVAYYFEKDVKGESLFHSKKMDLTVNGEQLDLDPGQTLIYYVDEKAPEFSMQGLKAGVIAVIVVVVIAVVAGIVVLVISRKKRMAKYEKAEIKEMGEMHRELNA
Procedure: The HT-29 cells as EpCAM-expressing cells were cultured by spheroid culture method as follows: 4×10^5 cells are suspended in 3 ml of D-MEM/F-12 medium (Dulbecco's Modified n Eagle Medium:Nutrient Mixture 12, 1:1 mixture) (Gibco/Life Technologies Inc.) supplemented with 20 ng/ml human EGF (Miltenyi Biotec K.K.), 20 ng/ml human EGF-2 (Miltenyi Biotec K.K.), B-27 (Gibco/Life Technologies Inc.), penicillin, and streptomycin and inoculated to EZ-Sphere®, a Petri dish of 3.5 cm in diameter coated with MPC polymer. After static culture for 72 hours, the cells were collected while the medium was suspended by pipetting. The cells were stained with the FITC-modified peptide and observed under a fluorescence microscope. […]

EpCAM [1] = molecular target: T2, EpCAM (Homo sapiens, UniProt P16422); test: Dissociation constant of EpCAM-binding peptide and EpCAM by fluorescence depolarization method; conditions: FITC-modified peptide; Kd estimated by curve fitting, Hill equation; N.B.: Not bound
T2 construct: with insertions myc and His tags at the C terminus of the extracellular domain; myc (C); made in house; host or cells: HEK-293T
T2 sequence (P16422 24-265 limits assumed): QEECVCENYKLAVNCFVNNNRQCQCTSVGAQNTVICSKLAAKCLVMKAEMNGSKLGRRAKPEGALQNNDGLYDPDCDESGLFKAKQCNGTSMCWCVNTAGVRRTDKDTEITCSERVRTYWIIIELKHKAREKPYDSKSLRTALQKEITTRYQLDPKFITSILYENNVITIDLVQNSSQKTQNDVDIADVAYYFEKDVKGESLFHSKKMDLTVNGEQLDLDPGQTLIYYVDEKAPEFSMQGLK
Procedure: The obtained EpCAM peptides were assayed for their strength of binding to EpCAM by the fluorescence depolarization method, which is a method for evaluating the interaction between molecules. Each fluorescently labeled EpCAM peptide and EpCAM are used to determine the strength of binding from the kinetics of depolarization by Brownian movement.
Each FITC-modified EpCAM peptide or control peptide was suspended at a concentration of approximately 100 μM in PBS. After centrifugation, the supernatant was collected and diluted 10-fold, and the absorbance was measured at 495 nm From the measurement value, the molar concentration of the peptide was determined using the formula of Beer-Lambert of the following expression 1: A=E×b×C [Expression 1]
EpCAM is diluted with PBS into several concentrations from 0 until reaching equilibrium (40 nM for the Ep133 peptide), and the FITC-modified peptide whose precise concentration has been measured by the aforementioned method is added to the dilutions thus prepared. The sample was left at a temperature for measurement for 30 minutes or longer and subjected to polarization measurement using a spectrofluorometer FP-6500 (JASCO Corp.) equipped with an automatic polarization measurement unit (JASCO Corp., APH-103). Kd was estimated by curve fitting according to the Hill equation.
The dissociation constants of the two types of peptides Ep133 (FIG. 2(A)) and Ep114 (FIG. 2(C)), which were obtained in the present invention and had the high ability to bind to EpCAM, were measured by the fluorescence depolarization method.
The dissociation constants of the EpCAM-binding peptide Ep301 (FIG. 2(D)) disclosed in Patent Literature 2 and Ep301 control (FIG. 2(E)), which was a control peptide derived from Ep301 by the substitution of cysteine at positions 5 and 10 by serine, and a sequence of EpCAM from residue 106 to 119 (FIG. 2(F)) having partial homology to EpCAM-binding peptides were measured similarly.

[2] = molecular target: T3, 293T cells transfected with full-length EpCAM gene (Homo sapiens, UniProt P16422); test: Staining of 293T cells forced to express EpCAM with FITC-modified peptide; type: cell-based
T3 construct: an expression plasmid in which the full-length EpCAM gene incorporated; expressed in transfected cells; host or cells: 293T
T3 sequence (P16422 24-314): T1 sequence (P16422 24-314)
Source text: 293T cells expressing no endogenous EpCAM were transfected with pkk196, an expression plasmid in which the full-length EpCAM gene incorporated, and forced to express EpCAM, followed by staining using FITC-modified Ep114.

[3] = molecular target: T4, EpCAM-expressing cells HT-29 (Homo sapiens, UniProt P16422); test: Cell staining of HT-29 cells, confocal microscope; type: cell-based; conditions: HT-29, FITC-labeled peptide 0.4 μM, 37° C., 1 hour
T4 construct: EpCAM on HT-29 was stained at a concentration of 0.4 μM; endogenous in cells; host or cells: HT-29
T4 sequence (P16422 24-314): T1 sequence (P16422 24-314)
Procedure: The EpCAM-expressing cells HT-29 or the non-expressing cells Hs578T were cultured in a medium containing 10% fetal calf serum in a Petri dish for 48 hours and then incubated at 37° C. for 1 hour with the FITC-labeled Ep114 peptide or a L3A control labeled peptide at a final concentration of 0.4 μM Immediately thereafter, the cells were observed under a confocal microscope.

EpCAM [4] = molecular target: T5, EpCAM (Homo sapiens, UniProt P16422); test: Binding activity against EpCAM after oxidation treatment (S—S bond formation, HPLC fractionation)
T5 sequence (P16422 24-314): T1 sequence (P16422 24-314)

EpCAM [5] = molecular target: T2, EpCAM; test: ELISA with ferritin-fused Ep114 peptide; type: binding; conditions: either partner immobilized
Procedure: Ep114 was fused to the N terminus of Fer8 (Non Patent Literature 6), a ferritin derivative, and used in analysis.
1 μg of the ferritin-fused Ep114 peptide (Ep114/fer8) or ferritin (fer8) was immobilized onto an ELISA plate. Then, purified EpCAM was added thereto at different concentrations. Bound EpCAM was detected using the anti-EpCAM antibody (FIG. 8A).
Next, 0.2 μg of purified EpCAM was immobilized onto an ELISA plate. Then, the ferritin-fused Ep114 peptide (Ep114/fer8) or ferritin (fer8) was added thereto at different concentrations. Bound Ep114 peptide (Ep114/fer8) or ferritin (fer8) was detected using an anti-ferritin antibody (FIG. 8B).

EpCAM [6] = molecular target: T2, EpCAM; test: ELISA with immobilized biotinylated peptide and purified EpCAM; type: binding; conditions: purified EpCAM 0, 10 or 100 ng
Procedure: was immobilized onto an ELISA plate via streptavidin, and purified EpCAM was added thereto in an amount of 0, 10, or 100 ng and reacted. After washing, bound EpCAM was detected using the anti-EpCAM antibody. A biotin-modified peptide PE194 (Ac-[…](biotin)-NH2) (SEQ ID NO: 13) of the L3A variant (non-EpCAM-binding variant) was used as a control.

## biotinylated Ep114: Ep114 peptide biotinylated at the stage of its synthesis, without linker (KHLQCVRNICWS; cysteine pairing not given here; also: biotin label, position not given here)
anti-Ep114 antibody
  binding to anti-Ep114 antibody: bound with the anti-Ep114 antibody

## 114control-FITC: FITC-labeled Ep114 control peptide in which cysteine at positions 5 and 10 is substituted by serine (KHLQSVRNISWS; also: FITC-labeled, position not given here) [reference compound]
EpCAM on HT-29
  staining of EpCAM on HT-29 spheroids: no staining is observed

## EHLHSLGSLSWP [Ep133 control, Ep133 with cysteine at positions 5 and 10 substituted by serine]
EpCAM [1]
  Kd (nM): N.B.

## 114-FITC: FITC-labeled Ep114 peptide (KHLQCVRNICWS; cysteine pairing not given here; also: FITC-labeled, position not given here) [Peptide 114-FITC]
EpCAM on HT-29
  staining of EpCAM on HT-29 spheroids: stained

## Ep114Cys: FITC-modified Ep114 peptide that did not undergo oxidation treatment (KHLQCVRNICWS; also: FITC-modified, position not given here, no oxidation treatment, cysteines not deliberately cross-linked)
[2]; FITC-modified peptide with or without oxidation treatment
  ability to stain EpCAM: equivalent ability to stain EpCAM

## L3A variant: FITC-labeled Ep114 variant peptide with leucine at 3rd residue substituted by alanine, staining control (KHAQCVRNICWS; cysteine pairing not given here; also: FITC-labeled, position not given here) [reference compound]
[3]
  staining of cell membrane portions: no staining was observed

## 133-FITC: FITC-labeled Ep133 peptide (EHLHCLGSLCWP; cysteine pairing not given here; also: FITC-labeled, position not given here) [Peptide 133-FITC]
EpCAM on HT-29
  staining of EpCAM on HT-29 spheroids: stained

## CC(C)C[C@@H]1NC(=O)[C@@H](NC(=O)[C@H](Cc2c[nH]cn2)NC(=O)[C@H](CC(C)C)NC(=O)[C@H](Cc2c[nH]cn2)NC(=O)[C@@H](N)CCC(=O)O)CSSC[C@@H](C(=O)N[C@@H](Cc2c[nH]c3ccccc23)C(=O)N2CCC[C@H]2C(=O)O)NC(=O)[C@H](CC(C)C)NC(=O)[C@H](CO)NC(=O)CNC1=O [Ep133, EHLHCLGSLCWP] (H-EHLHCLGSLCWP-OH; disulfide 5-10; N-terminus and C-terminus assumed)
[2]; data not shown
  ability to bind to EpCAM without active oxidation treatment: did not show the ability to bind to EpCAM
EpCAM [4]
  binding activity against EpCAM: only a fraction of the peptides having the S—S bond showed binding activity against EpCAM

## ferritin-fused Ep114 peptide: Ep114 fused to the N terminus of Fer8, a ferritin derivative (KHLQCVRNICWS; not fully specified (C-terminus, bridges); cysteine pairing not given here; also: fused to ferritin Fer8 (recombinant carrier), not in the letters)
EpCAM [5]
  detection of EpCAM: capable of sensitively detecting EpCAM

## Ac-KHLQCVRNICWSPPPPPPKK(Biotin)-NH2 (cysteine pairing not given here) [PE183]
EpCAM [6]
  ELISA signal: enhancement in ELISA signal proportional to the amount of EpCAM added

## 133control-FITC: FITC-labeled Ep133 control peptide in which cysteine at positions 5 and 10 is substituted by serine (EHLHSLGSLSWP; also: FITC-labeled, position not given here) [reference compound]
EpCAM on HT-29
  staining of EpCAM on HT-29 spheroids: no staining is observed

## KSLQSINNLSWP [Ep301 control, Ep301 with cysteine at positions 5 and 10 substituted by serine]
EpCAM [1]
  Kd (nM): N.B.

## Ac-KHAQCVRNICWSPPPPPPKK(Biotin)-NH2 (cysteine pairing not given here) [PE194, reference compound]
EpCAM [6]
  ELISA signal: increase in signal intensity was rarely observed

## KAKQCNGTSMCWPK [EpCAM partial sequence]
EpCAM [1]
  Kd (nM): N.B.
